Assay results reported in patent publication US6734179B2, “Benzothiazoles” (Hoffmann-La Roche Inc., priority 2001, dated 2004).

biological target: T1, human adenosine A2A receptor (Homo sapiens, UniProt P29274); assay: [3H]-SCH-58261 binding assay, human adenosine A2A receptor expressed in CHO cell membranes (SPA); settings: [3H]-SCH-58261 1 nM, Ki by Cheng-Prussoff equation
T1 construct: expressed in transfected cells; host or cells: CHO cells, semliki forest virus expression system; membrane preparation
T1 sequence (P29274 whole entry): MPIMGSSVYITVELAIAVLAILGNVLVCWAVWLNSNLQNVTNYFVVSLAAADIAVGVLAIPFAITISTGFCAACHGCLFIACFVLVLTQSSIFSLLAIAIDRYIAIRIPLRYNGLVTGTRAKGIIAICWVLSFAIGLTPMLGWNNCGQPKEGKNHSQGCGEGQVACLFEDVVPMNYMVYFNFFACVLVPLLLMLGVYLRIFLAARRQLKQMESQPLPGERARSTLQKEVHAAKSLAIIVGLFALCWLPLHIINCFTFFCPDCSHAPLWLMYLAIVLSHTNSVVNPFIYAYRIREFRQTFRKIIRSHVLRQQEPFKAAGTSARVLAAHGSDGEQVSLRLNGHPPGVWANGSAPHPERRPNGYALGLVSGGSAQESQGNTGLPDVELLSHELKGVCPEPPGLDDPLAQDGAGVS
Protocol: Human Adenosine A2A Receptor
The human adenosine A2A receptor was recombinantly expressed in chinese hamster ovary (CHO) cells using the semliki forest virus expression system. Cells were harvested, washed twice by centrifugation, homogenised and again washed by centrifugation. The final washed membrane pellet was suspended in a Tris (50 mM) buffer containing 120 mM NaCl, 5 mM KCl, 2 mM CaCl2 and 10 mM MgCl2 (pH 7.4) (buffer A). The [^3H]-SCH-58261 (Dionisotti et al., 1997, Br J Pharmacol 121, 353; 1 nM) binding assay was carried out in 96-well plates in the presence of 2.5 μg of membrane protein, 0.5 mg of Ysi-poly-1-lysine SPA beads and 0.1 U adenosine deaminase in a final volume of 200 μl of buffer A. Non-specific binding was defined using xanthine amine congener (XAC; 2 μM). Compounds were tested at 10 concentrations from 10 μM-0.3 nM. All assays were conducted in duplicate and repeated at least two times. Assay plates were incubated for 1 hour at room temperature before centrifugation and then bound ligand determined using a Packard Topcount scintillation counter. IC50 values were calculated using a non-linear curve fitting program and Ki values calculated using the Cheng-Prussoff equation.

For `COc1ccc(C2CCCCC2)c2sc(NC(=O)c3ccnc(CN4CCCC4)c3)nc12` [Example 25, N-(7-Cyclohexyl-4-methoxy-benzothiazol-2-yl)-2-pyrrolidin-1-yl-methyl-isonicotinamide], the “hA2 (pKi)” value was 8.80.

same assay, conditions: [3H]-SCH-58261 1 nM, Ki by Cheng-Prussoff equation, read-out: hA2 (pKi) (converted)

`COc1ccc(C2CCOCC2)c2sc(NC(=O)c3ccnc(CN4CCCC4)c3)nc12` [Example 43, N-[4-Methoxy-7-(tetrahydro-pyran-4-yl)-benzothiazol-2-yl]-2-pyrrolidin-1-ylmethyl-isonicotinamide] and `CCc1cc(C(=O)Nc2nc3c(OC)ccc(C4CCOCC4)c3s2)ccn1` [Example 33, 2-Ethyl-N-[4-methoxy-7-(tetrahydro-pyran-4-yl)-benzothiazol-2-yl]-isonicotinamide] are within 1.5-fold of each other in Ki: 1.23 nM for the first, 1.66 nM for the second.

Going from `COc1ccc(C2CCCCO2)c2sc(NC(=O)c3ccc(F)cc3)nc12` (stereo not shown) [Example 40, 4-Fluoro-N-[4-methoxy-7-(tetrahydro-pyran-2-yl)-benzothiazol-2-yl]-benzamide] to `COc1ccc(C2CCCCC2)c2sc(NC(=O)c3ccc(F)cc3)nc12` [Example 23, N-(7-Cyclohexyl-4-methoxy-benzothiazol-2-yl)-4-fluoro-benzamide], the Ki falls from 3.39 nM to 0.2 nM (17-fold).

Going from `COc1cc(C(=O)Nc2nc3c(OC)ccc(C4CCN(C(C)=O)CC4)c3s2)ccn1` [Example 21, N-[7-(1-Acetyl-piperidin-4-yl)-4-methoxy-benzothiazol-2-yl]-2-methoxy-isonicotinamide] to `COc1ccc(C2CCN(C(C)=O)CC2)c2sc(NC(=O)c3ccnc(C)c3)nc12` [Example 17, N-[7-(1-Acetyl-piperidin-4-yl)-4-methoxy-benzothiazol-2-yl]-2-methyl-isonicotinamide], the Ki rises from 3.98 nM to 6.31 nM (1.6-fold).

`COc1ccc(C2CCN(C(C)=O)CC2)c2sc(NC(=O)c3ccc(F)cc3)nc12` [Example 12, N-[7-(1-Acetyl-piperidin-4-yl)-4-methoxy-benzothiazol-2-yl]-4-fluoro-benzamide] and `COc1ccc(C2CCN(C(C)=O)CC2)c2sc(NC(=O)c3ccc(C)cc3)nc12` [Example 19, N-[7-(1-Acetyl-piperidin-4-yl)-4-methoxy-benzothiazol-2-yl]-4-methyl-benzamide] are within 1.5-fold of each other in Ki: 3.16 nM for the first, 3.98 nM for the second.

Going from `COc1ccc(C2CCN(C(C)=O)CC2)c2sc(NC(=O)c3ccnc(N4CCOCC4)c3)nc12` [Example 20, N-[7-(1-Acetyl-piperidin-4-yl)-4-methoxy-benzothiazol-2-yl]-2-morpholin-4-yl-isonicotinamide] to `COc1ccc(C2CCOCC2)c2sc(NC(=O)c3ccnc(N4CCOCC4)c3)nc12` [Example 6, N-[4-Methoxy-7-(tetrahydro-pyran-4-yl)-benzothiazol-2-yl]-2-morpholin-4-yl-isonicotinamide], the Ki falls from 2.51 nM to 0.759 nM (3.3-fold).

First: COc1cc(C(=O)Nc2nc3c(OC)ccc(C4CCOCC4)c3s2)ccn1 [Example 31, 2-Methoxy-N-[4-methoxy-7-(tetrahydro-pyran-4-yl)-benzothiazol-2-yl]-isonicotinamide]
Second: CCOc1cc(C(=O)Nc2nc3c(OC)ccc(C4CCOCC4)c3s2)ccn1 [Example 32, 2-Ethoxy-N-[4-methoxy-7-(tetrahydro-pyran-4-yl)-benzothiazol-2-yl]-isonicotinamide]
The Ki of the first is 1.9-fold lower: 1.45 nM for the first, 2.75 nM for the second.

Going from `COc1ccc(C2CCCCO2)c2sc(NC(=O)c3ccnc(N4CCOCC4)c3)nc12` (stereo not shown) [Example 42, N-[4-Methoxy-7-(tetrahydro-pyran-2-yl)-benzothiazol-2-yl]-2-morpholin-4-yl-isonicotinamide] to `COc1ccc(C2CCCCO2)c2sc(NC(=O)c3ccnc(Br)c3)nc12` (stereo not shown) [Example 39, 2-Bromo-N-[4-methoxy-7-(tetrahydro-pyran-2-yl)-benzothiazol-2-yl]-isonicotinamide], the Ki rises from 2.04 nM to 3.8 nM (1.9-fold).

Compared with `CCCc1cc(C(=O)Nc2nc3c(OC)ccc(C4CCOCC4)c3s2)ccn1` [Example 34, N-[4-Methoxy-7-(tetrahydro-pyran-4-yl)-benzothiazol-2-yl]-2-propyl-isonicotinamide], `COc1ccc(C2CCOCC2)c2sc(NC(=O)c3ccnc(C)c3)nc12` [Example 5, N-[4-Methoxy-7-(tetrahydro-pyran-4-yl)-benzothiazol-2-yl]-2-methyl-isonicotinamide] is 1.5-fold higher in Ki: 1.82 nM for the first, 2.82 nM for the second.

`COc1ccc(C2CCOCC2)c2sc(NC(=O)c3ccnc(C(C)C)c3)nc12` [Example 36, 2-Isopropyl-N-[4-methoxy-7-(tetrahydro-pyran-4-yl)-benzothiazol-2-yl]-isonicotinamide] and `COc1ccc(C2CCOCC2)c2sc(NC(=O)c3ccnc(Br)c3)nc12` [Example 4, 2-Bromo-N-[4-methoxy-7-(tetrahydro-pyran-4-yl)-benzothiazol-2-yl]-isonicotinamide] are within 1.5-fold of each other in Ki: 1.17 nM for the first, 1.74 nM for the second.

`COc1ccc(C2CCOCC2)c2sc(NC(=O)c3ccc(F)cc3)nc12` [Example 3, 4-Fluoro-N-[4-methoxy-7-(tetrahydro-pyran-4-yl)-benzothiazol-2-yl]-benzamide] and `COc1ccc(C2CCOCC2)c2sc(NC(=O)c3ccc(CCl)cc3)nc12` [Example 7, 4-Chloromethyl-N-[4-methoxy-7-(tetrahydro-pyran-4-yl)-benzothiazol-2-yl]-benzamide] are within 1.5-fold of each other in Ki: 1.41 nM for the first, 1.1 nM for the second.

Going from `COC(=O)Nc1nc2c(OC)ccc(C3=CCCCC3)c2s1` [Example 22, (7-Cyclohex-1-enyl-4-methoxy-benzothiazol-2-yl)-carbamic acid methyl ester] to `COC(=O)Nc1nc2c(OC)ccc(C3=CCOCC3)c2s1` [Example 1, [7-(3,6-Dihydro-2H-pyran-4-yl)-4-methoxy-benzothiazol-2-yl]-carbamic acid methyl ester], the Ki falls from 10 nM to 4.9 nM (2-fold).

Going from `COCCN(C)c1cc(C(=O)Nc2nc3c(OC)ccc(C4CCOCC4)c3s2)ccn1` [Example 47, 2-[(2-Methoxy-ethyl)-methyl-amino]-N-[4-methoxy-7-(tetrahydro-pyran-4-yl)-benzothiazol-2-yl]-isonicotinamide] to `COCCNc1cc(C(=O)Nc2nc3c(OC)ccc(C4CCOCC4)c3s2)ccn1` [Example 46, 2-(2-Methoxy-ethylamino)-N-[4-methoxy-7-(tetrahydro-pyran-4-yl)-benzothiazol-2-yl]-isonicotinamide], the Ki falls from 1.51 nM to 0.871 nM (1.7-fold).

Going from `COc1ccc(C2CCCCO2)c2sc(NC(=O)c3ccnc(C)c3)nc12` (stereo not shown) [Example 41, N-[4-Methoxy-7-(tetrahydro-pyran-2-yl)-benzothiazol-2-yl]-2-methyl-isonicotinamide] to `COc1ccc(C2CCOCC2)c2sc(NC(=O)c3ccc(C)nc3)nc12` [Example 28, N-[4-Methoxy-7-(tetrahydro-pyran-4-yl)-benzothiazol-2-yl]-6-methyl-nicotinamide], the Ki falls from 3.39 nM to 1.07 nM (3.2-fold).

`COc1ccc(C2CCOCC2)c2sc(NC(=O)N3CCC(O)CC3)nc12` [Example 45, 4-Hydroxy-piperidine-1-carboxylic acid [4-methoxy-7-(tetrahydro-pyran-4-yl)-benzothiazol-2-yl]-amide] and `COc1ccc(C2CCOCC2)c2sc(NC(=O)N3CCOCC3)nc12` [Example 44, Morpholine-4-carboxylic acid [4-methoxy-7-(tetrahydro-pyran-4-yl)-benzothiazol-2-yl]-amide] are within 1.5-fold of each other in Ki: 1.62 nM for the first, 1.51 nM for the second.

Compared with `COCCN(C)Cc1ccc(C(=O)Nc2nc3c(OC)ccc(C4CCOCC4)c3s2)cc1` [Example 8, 4-{[(2-Methoxy-ethyl)-methyl-amino]-methyl}-N-[4-methoxy-7-(tetrahydro-pyran-4-yl)-benzothiazol-2-yl]-benzamide], `COCCN(C)Cc1ccc(C(=O)Nc2nc3c(OC)ccc(C4CCCCC4)c3s2)cc1` [Example 24, N-(7-Cyclohexyl-4-methoxy-benzothiazol-2-yl)-4-{[(2-methoxy-ethyl)-methyl-amino]-methyl}-benzamide] is 1.5-fold lower in Ki: 2.4 nM for the first, 1.58 nM for the second.

`COC(=O)Nc1nc2c(OC)ccc(C3CCOCC3)c2s1` [Example 2, [4-Methoxy-7-(tetrahydro-pyran-4-yl)-benzothiazol-2-yl]-carbamic acid methyl ester] and `COCCN(C)Cc1ccc(C(=O)Nc2nc3c(OC)ccc(C4CCN(C(C)=O)CC4)c3s2)cc1` [Example 18, N-[7-(1-Acetyl-piperidin-4-yl)-4-methoxy-benzothiazol-2-yl]-4-{[(2-methoxy-ethyl)-methylamino]-methyl}-benzamide] are within 1.5-fold of each other in Ki: 11.5 nM for the first, 7.94 nM for the second.

For `COc1ccc(C2=CCN(C(C)=O)CC2)c2sc(NC(=O)c3ccc(F)cc3)nc12` [Example 11, N-[7-(1-Acetyl-1,2,3,6-tetrahydro-pyridin-4-yl)-4-methoxy-benzothiazol-2-yl]-4-fluoro-benzamide], the Ki was 5.01 nM.

test system: not given; assay: not given; settings: not given

First: COc1ccc(C2CCOCC2)c2sc(NC(=O)c3ccnc(CN4CCCC4)c3)nc12 [Example 43, N-[4-Methoxy-7-(tetrahydro-pyran-4-yl)-benzothiazol-2-yl]-2-pyrrolidin-1-ylmethyl-isonicotinamide]
Second: COc1ccc(C2CCOCC2)c2sc(NC(=O)N3CCC(O)CC3)nc12 [Example 45, 4-Hydroxy-piperidine-1-carboxylic acid [4-methoxy-7-(tetrahydro-pyran-4-yl)-benzothiazol-2-yl]-amide]
The melting point of the first is higher: 200 to 202 °C for the first, 106 to 109 °C for the second.

First: COc1ccc(C2CCCCC2)c2sc(NC(=O)c3ccc(F)cc3)nc12 [Example 23, N-(7-Cyclohexyl-4-methoxy-benzothiazol-2-yl)-4-fluoro-benzamide]
Second: COc1ccc(C2=CCNCC2)c2sc(NC(=O)c3ccc(F)cc3)nc12.Cl
The melting point of the first is lower: 192 to 195 °C for the first, 268 to 275 °C for the second.

First: COC(=O)Nc1nc2c(OC)ccc(C3=CCCCC3)c2s1 [Example 22, (7-Cyclohex-1-enyl-4-methoxy-benzothiazol-2-yl)-carbamic acid methyl ester]
Second: COc1ccc(C2CCNCC2)c2sc(NC(=O)N3CCOCC3)nc12.Cl
The melting point of the first is lower: 164 to 173 °C for the first, 314 to 315 °C for the second.
